Results as given in publication PMC10885153, “Membrane Permeability in a Large Macrocyclic Peptide Driven by a Saddle-Shaped Conformation” (Journal of the American Chemical Society, 2024).
Positions of bridges follow the written chain, without caps; N, C: chain ends. Non-standard residues stand in square brackets, D forms with d. Residues, ends and D or L forms follow the SMILES beside them. Cha = N[C@@H](CC1CCCCC1)C(=O)O; NMeAbu = CC[C@H](NC)C(=O)O; NMeC = CN[C@@H](CS)C(=O)O; NMeA = CN[C@@H](C)C(=O)O; dAbu = CC[C@@H](N)C(=O)O; dNMeA = CN[C@H](C)C(=O)O; Nva = CCC[C@H](N)C(=O)O; Abu = CC[C@H](N)C(=O)O; Nleu = CC(C)CNCC(=O)O; NPrGly = CCCNCC(=O)O; NEtG = CCNCC(=O)O

Columns and labels:
in vitro [1] = conditions: dog, pH 7.4
Protocol: We also tested the permeabilities of the pure compounds in a cell-based trans-well permeability assay using Mdr1 knockout Madin–Darby canine kidney (MDCK) cells which minimize the endogenous efflux activity of traditional MDCK cells.[54]
The gMDCKI cell line (overexpressed cell line of Madin -Darby Canine Kidney which acquired from the NIH)
maintained in DMEM medium supplemented with 1% pen -strep, 5 µg/mL Plasmocin, and 10% FBS under
standard culture conditions (37 °C, 95% humidity, and 5% CO2), were seeded (0.75 x 10^5 cells) on the HTS
Transwell-96 permeable support (Corning) to form a confluent monolayer for two days.
All experimental steps were fully automated on Hamilton Vantage. Compound stock solution (1 mM in
DMSO) was diluted (10 μM final in HBSS, pH 7.4) with Lucifer Yellow as leakage indicator (20 μM). After
washing with HBSS buffer, the solution of test compounds was added to the apical side of the monolayers.
The plate was incubated for 3 h at 37 °C. T0 samples (10 µL of the 10 µM compounds diluted solution with
LY) were transferred to a 96-well plate, and then 40 µL of HBSS was added. After 3 hours, 50 μL basolateral
samples in the receiving plate were transferred to a fresh 96-well plate and added 100 μL of IS solution
(Propranolol). LY were read by plate reader and the samples were analyzed by LC/MS/MS.
The apparent permeability coefficient (Papp) is calculated from the permeation rate and compound
concentration at t=0h and t=3h. Where:
dQ/dt: amount of product present in the basal (A-B) or apical (B-A) compartment as a function of time
A: area of transwell (cm2).
C0: initial concentration of product applied in the apical (A -B) or basal (B-A) compartment (nmol/ml).

in vitro [2] = conditions: PAMPA
Protocol: assay was carried out with a 96-well donor plate with 0.45 μ hydrophobic Immobilon-P membrane supports
(Millipore MAIPNTR10) and a 96-well Teflon acceptor plate (Millipore MSSACCEPTOR). The PAMPA
protocol then proceeded as follows:
Donor well solutions were prepared to a volume of 1 000 µL with the analytes as a solution in 1X
PBS pH 7.4 and 5% DMSO. To a 3 mL Eppendorf tube was added 950 µL of 1X PBS pH 7.4, 40
Analyte – 10 µM per compound
sonicated (5 min) to ensure full dissolution of the lecithin. The donor membrane plate was turned
upside down and bottom of the membranes exposed. 5 µL of the 1% soy lecithin solution in
dodecane was then placed on the bottom of the membrane, allowing the drop to spread across the
full area of the membrane. Any membranes with visible damage were not used in the assay. The
membranes were allowed to equilibrate for 5 min before loading.
3. Each well within the Teflon block acceptor plate that was to be used in the assay was then loaded
with 300 µL of 1X PBS pH 7.4 and 5% DMSO.
Working without break, 150 µL of each donor well solution was transferred from the to the 96-well
donor plate. Each mixture of interest was r un in quadruplicate, using a new well for each replicate.
As soon as the 96-well donor plate was finished being loaded, it was gently placed into the 96-well
Teflon acceptor plate, taking care not to trap any air bubbles beneath the membrane.
The donor/acceptor plates were covered gently with the lid to minimize evaporation and transferred
gently as a system to a sealed chamber and left to sit overnight at room temperature. The chamber
was kept from drying by placing a wet paper towel within to prevent evaporation.
After ~19-20 hours the donor plate was removed from the acceptor plate.
50 µL of each well (donor and acceptor) were transferred to a 96 -well plate and diluted with 50 µL
of methanol prior to heat sealing and quantification by UPLC -MS.

[3] = PAMPA, compounds measured in multiplex as mixtures (primary protocol); conditions: for Papp at 10 µM: PAMPA, pH 7.4, PAMPA Papp; for Papp at 10 µM / PAMPA Papp: internal standard, 10 µM; for PAMPA Pe_avg: Stereoscan Library A (Scaffold A), average
[4] = PAMPA, 10 µM, pH 7.4
in vitro [5] = conditions: PAMPA; remark: listed apart in the source

SMILES: CCOC(=O)[C@@H]1CSCC(=O)N[C@H](CC)C(=O)N(CC(C)C)CC(=O)N[C@@H](CC(C)C)C(=O)N(C)[C@H](C)C(=O)N(C)[C@@H](C)C(=O)N[C@H](CC(C)C)C(=O)N(C)[C@H](C)C(=O)N[C@@H](CC(C)C)C(=O)N1C [B1, O=C([C@@H](NC([C@H](N(C([C@H](NC([C@@H](N(C([C@H](N(C)C([C@@H](NC(CN1CC(C)C)=O)CC(C)C)=O)C)=O)C)C)=O)CC(C)C)=O)C)C)=O)CC(C)C)N([C@@H](CSCC(N[C@H](CC)C1=O)=O)C(OCC)=O)C] ({CH2CO}-[dAbu][Nleu]L[dNMeA][NMeA][dL][dNMeA]L[NMeC]-OEt; thioether N-9)
- Papp at 3 h, 10 µM (in vitro [1]; MDCK): 1.3 ×10⁻⁶ cm/s
- Papp A→B at 3 h, 10 µM (in vitro [1]): 1.27 ×10⁻⁶ cm/s
- Papp at 10 µM (in vitro [2]; pH 7.4, PAMPA Papp): 10.1 ×10⁻⁶ cm/s
- Papp at 10 µM (in vitro [2]; pH 7.4, Papp): ~10 ×10⁻⁶ cm/s

SMILES: CCOC(=O)[C@@H]1CSCC(=O)N[C@@H](CC)C(=O)N(CC(C)C)CC(=O)N[C@@H](CC(C)C)C(=O)N(C)[C@H](C)C(=O)N(C)[C@@H](C)C(=O)N[C@H](CC(C)C)C(=O)N(C)[C@H](C)C(=O)N[C@@H](CC(C)C)C(=O)N1C [B1-1L, O=C([C@@H](NC([C@H](N(C([C@H](NC([C@@H](N(C([C@H](N(C)C([C@@H](NC(CN1CC(C)C)=O)CC(C)C)=O)C)=O)C)C)=O)CC(C)C)=O)C)C)=O)CC(C)C)N([C@@H](CSCC(N[C@@H](CC)C1=O)=O)C(OCC)=O)C] ({CH2CO}-[Abu][Nleu]L[dNMeA][NMeA][dL][dNMeA]L[NMeC]-OEt; thioether N-9)
- Papp A→B at 3 h, 10 µM (in vitro [1]): 0.03 ×10⁻⁶ cm/s
- Papp at 10 µM (in vitro [2]; pH 7.4, PAMPA Papp): 0.5 ×10⁻⁶ cm/s
- Papp at 10 µM (in vitro [2]; pH 7.4, PAMPA Pe_avg): 0.455 ×10⁻⁶ cm/s

SMILES: CCOC(=O)[C@@H]1CSCC(=O)N[C@H](CC)C(=O)N(CC(C)C)CC(=O)N[C@H](CC(C)C)C(=O)N(C)[C@H](C)C(=O)N(C)[C@@H](C)C(=O)N[C@H](CC(C)C)C(=O)N(C)[C@H](C)C(=O)N[C@@H](CC(C)C)C(=O)N1C [B1-3D, O=C([C@@H](NC([C@H](N(C([C@H](NC([C@@H](N(C([C@H](N(C)C([C@H](NC(CN1CC(C)C)=O)CC(C)C)=O)C)=O)C)C)=O)CC(C)C)=O)C)C)=O)CC(C)C)N([C@@H](CSCC(N[C@H](CC)C1=O)=O)C(OCC)=O)C] ({CH2CO}-[dAbu][Nleu][dL][dNMeA][NMeA][dL][dNMeA]L[NMeC]-OEt; thioether N-9)
- Papp at 3 h, 10 µM (in vitro [1]; MDCK): 0.5 ×10⁻⁶ cm/s
- Papp A→B at 3 h, 10 µM (in vitro [1]): 0.48 ×10⁻⁶ cm/s
- Papp at 10 µM (in vitro [2]; pH 7.4, PAMPA Papp): 1.5 ×10⁻⁶ cm/s

SMILES: CCOC(=O)[C@@H]1CSCC(=O)N[C@H](CC)C(=O)N(CC(C)C)CC(=O)N[C@@H](CC(C)C)C(=O)N2CCC[C@@H]2C(=O)N(C)[C@@H](C)C(=O)N[C@H](CC(C)C)C(=O)N(C)[C@H](C)C(=O)N[C@@H](CC(C)C)C(=O)N1C [B1-4dP, O=C([C@@H](NC([C@H](N(C([C@H](NC([C@@H](N(C([C@@H]1N(CCC1)C([C@@H](NC(CN2CC(C)C)=O)CC(C)C)=O)=O)C)C)=O)CC(C)C)=O)C)C)=O)CC(C)C)N([C@@H](CSCC(N[C@H](CC)C2=O)=O)C(OCC)=O)C] ({CH2CO}-[dAbu][Nleu]L[dP][NMeA][dL][dNMeA]L[NMeC]-OEt; thioether N-9)
- Papp A→B at 3 h, 10 µM (in vitro [1]): 0.0274 ×10⁻⁶ cm/s
- Papp at 10 µM (in vitro [2]; pH 7.4, PAMPA Papp): 0.1 ×10⁻⁶ cm/s
- Papp at 10 µM (in vitro [2]; pH 7.4, PAMPA Pe_avg): 0.213 ×10⁻⁶ cm/s

SMILES: CCOC(=O)[C@@H]1CSCC(=O)N[C@H](CC)C(=O)N(CC(C)C)CC(=O)N[C@@H](CC(C)C)C(=O)N(C)[C@H](C)C(=O)N(C)[C@@H](C)C(=O)N[C@@H](CC(C)C)C(=O)N(C)[C@H](C)C(=O)N[C@@H](CC(C)C)C(=O)N1C [B1-6L, O=C([C@@H](NC([C@H](N(C([C@@H](NC([C@@H](N(C([C@H](N(C)C([C@@H](NC(CN1CC(C)C)=O)CC(C)C)=O)C)=O)C)C)=O)CC(C)C)=O)C)C)=O)CC(C)C)N([C@@H](CSCC(N[C@H](CC)C1=O)=O)C(OCC)=O)C] ({CH2CO}-[dAbu][Nleu]L[dNMeA][NMeA]L[dNMeA]L[NMeC]-OEt; thioether N-9)
- Papp at 3 h, 10 µM (in vitro [1]; MDCK): 0.4 ×10⁻⁶ cm/s
- Papp A→B at 3 h, 10 µM (in vitro [1]): 0.39 ×10⁻⁶ cm/s
- Papp at 10 µM (in vitro [2]; pH 7.4, PAMPA Papp): 0.7 ×10⁻⁶ cm/s
- Papp at 10 µM (in vitro [2]; pH 7.4, PAMPA Pe_avg): 0.738 ×10⁻⁶ cm/s

SMILES: NC(=O)N1c2ccccc2C=Cc2ccccc21 [Carbamazepine]
- Papp at 10 µM ([3]; Lipo expt. group A1): 5.9 ± 0.3 ×10⁻⁶ cm/s
- Papp at 10 µM ([3]; Lipo expt. group A2): 6 ± 0.4 ×10⁻⁶ cm/s
- Papp at 10 µM ([3]; Lipo expt. group B1): 5.8 ± 0.4 ×10⁻⁶ cm/s
- Papp at 10 µM ([3]; Lipo expt. group B2): 6.3 ± 0.2 ×10⁻⁶ cm/s
- Papp at 10 µM ([3]; Lipo expt. group C1): 6.8 ± 0.1 ×10⁻⁶ cm/s
- Papp at 10 µM ([3]; Lipo expt. group C2): 6 ± 0.1 ×10⁻⁶ cm/s
- Papp at 10 µM ([3]; StereoA expt. group A2D): 4.4 ± 0.1 ×10⁻⁶ cm/s
- Papp at 10 µM ([3]; StereoA expt. group A2L): 4.4 ± 0.1 ×10⁻⁶ cm/s
- Papp at 10 µM ([3]; StereoA expt. group ADD): 4.2 ± 0.1 ×10⁻⁶ cm/s
- Papp at 10 µM ([3]; StereoA expt. group ADL): 4.3 ± 0.2 ×10⁻⁶ cm/s
- Papp at 10 µM ([3]; StereoA expt. group ALD): 4.3 ± 0.1 ×10⁻⁶ cm/s
- Papp at 10 µM ([3]; StereoA expt. group ALL): 5.1 ± 0.3 ×10⁻⁶ cm/s
- Papp at 10 µM ([3]; StereoB expt. group B2D): 6.3 ± 1.7 ×10⁻⁶ cm/s
- Papp at 10 µM ([3]; StereoB expt. group B2L): 5.6 ± 0.2 ×10⁻⁶ cm/s
- Papp at 10 µM ([3]; StereoB expt. group BDD): 5.5 ± 0.1 ×10⁻⁶ cm/s
- Papp at 10 µM ([3]; StereoB expt. group BDL): 5.8 ± 0.1 ×10⁻⁶ cm/s
- Papp at 10 µM ([3]; StereoB expt. group BLD): 5.5 ± 0.1 ×10⁻⁶ cm/s
- Papp at 10 µM ([3]; StereoB expt. group BLL): 5.8 ± 0.2 ×10⁻⁶ cm/s

SMILES: CCOC(=O)[C@@H]1CSCC(=O)N[C@H](CC)C(=O)N(C)[C@@H](C)C(=O)N[C@H](CC(C)C)C(=O)N(C)[C@H](C)C(=O)N(CC)CC(=O)N[C@@H](CC(C)C)C(=O)N(C)[C@@H](C)C(=O)N[C@@H](CC(C)C)C(=O)N1C [JF206_A2D_DDLL_Ethyl] ({CH2CO}-[dAbu][NMeA][dL][dNMeA][NEtG]L[NMeA]L[NMeC]-OEt; thioether N-9)
- PAMPA Pe_avg [3]: 0 ×10⁻⁶ cm/s

SMILES: CCOC(=O)[C@@H]1CSCC(=O)N[C@H](CC)C(=O)N(C)[C@@H](C)C(=O)N[C@H](CC(C)C)C(=O)N(C)[C@H](C)C(=O)N(CC(C)C)CC(=O)N[C@@H](CC(C)C)C(=O)N(C)[C@@H](C)C(=O)N[C@@H](CC(C)C)C(=O)N1C [JF206_A2D_DDLL_Isobutyl] ({CH2CO}-[dAbu][NMeA][dL][dNMeA][Nleu]L[NMeA]L[NMeC]-OEt; thioether N-9)
- PAMPA Pe_avg [3]: 0 ×10⁻⁶ cm/s

SMILES: CCC[C@@H]1NC(=O)CN(CCC)C(=O)[C@H](CC(C)C)NC(=O)CSC[C@@H](C(=O)OCC)N(C)C(=O)[C@H](CC(C)C)NC(=O)[C@H](C)N(C)C(=O)[C@H](CC2CCCCC2)NC(=O)[C@H](C)N(C)C(=O)[C@H]2CCCN2C1=O [LB11, O=C(N(C)[C@H](C(OCC)=O)CSCC(N[C@H](C1=O)CC(C)C)=O)[C@H](CC(C)C)NC([C@H](C)N(C)C([C@H](CC2CCCCC2)NC([C@H](C)N(C)C([C@@H]3N(C([C@H](CCC)NC(CN1CCC)=O)=O)CCC3)=O)=O)=O)=O] ({CH2CO}-L[NPrGly][Nva][dP][NMeA][Cha][NMeA]L[NMeC]-OEt; thioether N-9)
- %R_avg [4]: 6.2%
- Papp at 10 µM (in vitro [5]; pH 7.4, Pe_avg): 0.619 ×10⁻⁶ cm/s
- Papp at 10 µM (in vitro [5]; pH 7.4, log(Pe)_avg): 0.551 ×10⁻⁶ cm/s

SMILES: CCCN1CC(=O)N[C@@H](CC(C)C)C(=O)N2CCC[C@@H]2C(=O)N(C)[C@@H](C)C(=O)N[C@@H](CC2CCCCC2)C(=O)N(C)[C@@H](C)C(=O)N[C@@H](CC(C)C)C(=O)N(C)[C@H](C(=O)OCC)CSCC(=O)N[C@@H](CC(C)C)C1=O [LB12, O=C(N(C)[C@H](C(OCC)=O)CSCC(N[C@H](C1=O)CC(C)C)=O)[C@H](CC(C)C)NC([C@H](C)N(C)C([C@H](CC2CCCCC2)NC([C@H](C)N(C)C([C@@H]3N(C([C@H](CC(C)C)NC(CN1CCC)=O)=O)CCC3)=O)=O)=O)=O] ({CH2CO}-L[NPrGly]L[dP][NMeA][Cha][NMeA]L[NMeC]-OEt; thioether N-9)
- %R_avg [4]: 6.0%
- Papp at 10 µM (in vitro [5]; pH 7.4, Pe_avg): 0.072 ×10⁻⁶ cm/s
- Papp at 10 µM (in vitro [5]; pH 7.4, log(Pe)_avg): 0.0593 ×10⁻⁶ cm/s

SMILES: CCOC(=O)[C@@H]1CSCC(=O)N[C@@H](CC(C)C)C(=O)N(C)[C@@H](C)C(=O)N[C@@H](CC(C)C)C(=O)N2CCC[C@@H]2C(=O)N(C)[C@@H](CC)C(=O)N[C@@H](CC)C(=O)N(C)[C@@H](C)C(=O)N[C@@H](CC(C)C)C(=O)N1C [LC02, O=C(N(C)[C@H](C(OCC)=O)CSCC(N[C@H](C(N(C)[C@@H](C)C(N[C@@H](CC(C)C)C(N1[C@H](CCC1)C(N(C)[C@@H](CC)C(N[C@H]2CC)=O)=O)=O)=O)=O)CC(C)C)=O)[C@H](CC(C)C)NC([C@H](C)N(C)C2=O)=O] ({CH2CO}-L[NMeA]L[dP][NMeAbu][Abu][NMeA]L[NMeC]-OEt; thioether N-9)
- %R_avg [4]: 19.3%
- Papp A→B at 3 h, 10 µM (in vitro [1]; MDCK): 7.4 ×10⁻⁶ cm/s
- Papp at 3 h, 10 µM (in vitro [1]; MDCK): 7.4 ×10⁻⁶ cm/s
- Papp at 10 µM (in vitro [5]; pH 7.4, Permeability (Papp) PAMPA (mixture)): 5 ×10⁻⁶ cm/s

SMILES: CC(C)NCC(O)COc1cccc2ccccc12 (centres unmarked) [Propranolol]
- Papp at 10 µM ([3]; Lipo expt. group A1): 9.1 ± 0.4 ×10⁻⁶ cm/s
- Papp at 10 µM ([3]; Lipo expt. group A2): 9.2 ± 0.9 ×10⁻⁶ cm/s
- Papp at 10 µM ([3]; Lipo expt. group B2): 8.8 ± 0.2 ×10⁻⁶ cm/s
- Papp at 10 µM ([3]; Lipo expt. group C1): 9.8 ± 0.2 ×10⁻⁶ cm/s
- PAMPA Papp ([3]; Lipo expt. group B1): 7.7 ± 0.8 x10-6 cm/s
- PAMPA Papp ([3]; Lipo expt. group C2): 9.4 ± 0.4 x10-6 cm/s
